In patent US9528090B2, “Differentiation of human embryonic stem cells” (Janssen Biotech, Inc., priority 2010, dated 2016):

Assays:
Type in all cases: cell-based
[1] = system: human embryonic stem cells line H1; test: Definitive endoderm differentiation of H1 cells, cluster seeding: real-time PCR gene expression; conditions: 1-100 ng/ml of insulin, BSA medium, day 4, real-time PCR
Description: (§1) Cells of the human embryonic stem cells line H1 (p40-p52) were cultured on MATRIGEL® (1:30 dilution) (BD Biosciences; Cat #356231)-coated dishes in MEF-CM (mouse embryonic fibroblast conditioned media) supplemented with 16 ng/ml of FGF2 (Catalog#100-18B, PeproTech, NJ), and differentiated into cells expressing markers characteristic of the definitive endoderm lineage as follows: • a. RPMI medium supplemented with 2% fatty acid-free BSA (Catalog#68700, Proliant, IA), and 100 ng/ml activin A (R&D Systems, MN) plus 20 ng/ml WNT-3a (Catalog#1324-WN-002, R&D Systems, MN) for one day, then • b. RPMI medium supplemented with 2% BSA and 100 ng/ml activin A for an additional three days.
In some of the cultures, the cells were treated with the following dilution of ITS-X (Catalogue#51500-056, Invitrogen, CA): 0, 1:10^6, 1:5×10^5, 1:10^5, 1:10^4. ITS-X is a serum replacement supplemented comprised of 1 mg/ml of Insulin, 0.55 mg/ml of Transferrin, 0.00067 mg/ml of Sodium Selenite, and 0.2 mg/ml of Ethanolamine The range of dilutions of ITS-X correspond to 0, 1 ng/ml, 2 ng/ml, 10 ng/ml, and 100 ng/ml of insulin. As a control, 0.2% FBS (Catalogue#SH30070.03, Hyclone, UT) was used for day 1 of differentiation, 0.5% FBS at day 2 and 2% FBS was used for days 3-4. The FBS treated cultures were not supplemented with ITS-X. […]

[2] = system: human embryonic stem cells line H1; test: Definitive endoderm differentiation of H1 cells in FBS medium (GDF8/GSK3B inhibitor) with IGF or insulin: FACS and real-time PCR; conditions: in the presence of FBS, 10-100 ng/ml, day 4
Description: Cells of the human embryonic stem cells line H1 (p40-p52) were seeded as single cells at a density of 100000 cells/cm^2 on MATRIGEL® (1:30 dilution) (BD Biosciences; Cat #356231)-coated dishes in MEF-CM (mouse embryonic fibroblast conditioned media) supplemented with 16 ng/ml of FGF2 (Catalog#100-18B, PeproTech, NJ) and 10 μM of Y27632 (Rock inhibitor, Catalogue#Y0503, Sigma, Mo.). 72 hrs post seeding, cultures were differentiated into definitive endoderm (DE) as follows: • a. with MCDB-131 (Catalogue#10372-019, Invitrogen, CA) medium supplemented with 0.2% FBS (Catalogue#SH30070.03, Hyclone, UT), 0.0025 g/ml sodium bicarbonate (Catalogue #S3187, Sigma, Mo.), 1× GlutaMax™ (Catalogue #35050-079, Invitrogen, Ca) and 100 ng/ml GDF8 (Catalogue#120-00, PeproTech, NJ) plus 2.5 μM of the GSK3B inhibitor 14-Prop-2-en-1-yl-3,5,7,14,17,23,27-heptaazatetracyclo[19.3.1.1˜2,6˜0.1˜8,12˜]heptacosa-1(25),2(27),3,5,8(26),9,11,21,23-nonaen-16-one for one day, then • b. MCDB-131 medium supplemented with FBS, sodium bicarbonate, Glutamax, and 100 ng/ml GDF8 for an additional three days.
0.5% FBS was used for day 2 and 2% FBS was used for days 3-4. Besides regular FBS, heat treated FBS (Catalogue#F4135, Sigma, Mo.) and charcoal stripped treated FBS (Catalogue#F6765, Sigma, Mo.) were also tested. Some of the FBS treated cultures were also treated with various concentrations of IGF (10-100 ng/ml) or insulin (10-100 ng/ml).
At day 4, samples were collected for analysis by FACS and real-time PCR.

[3] = system: human embryonic stem cells line H1; test: Definitive endoderm differentiation of H1 cells, cluster seeding (activin A/WNT-3a, RPMI): FACS for CXCR4 and CD9; conditions: for % CXCR4 + CD9− / % CXCR4 − CD9+ / % CXCR4 − CD9−: cluster seeding, day 4
Description: as §1, with “[…]®” for “MATRIGEL®”
[…] ITS-X is a serum replacement supplemented comprised of 1 mg/ml of Insulin, 0.55 mg/ml of Transferrin, 0.00067 mg/ml of Sodium Selenite, […] As a control, 0.2% FBS (Catalogue#SH30070.03, Hyclone, UT) was used for day 1 of differentiation, 0.5% FBS at day 2 and 2% FBS was used for days 3-4. The FBS treated cultures were not supplemented with ITS-X.
At day 4, samples were collected for FACS and gene expression analysis using real-time PCR.
The cell surface receptor CXCR4 has been previously shown to be a marker of definitive endoderm. CD9 is a marker for undifferentiated ES cells. Consequently, an increase in the expression of CXCR4, and a decrease in the expression of CD9 in a population of cells is indicative for the formation of definitive endoderm.

[4] = BSA + 100 ng/ml insulin (ITS-X)

Substance: insulin
- expression of markers of definitive endoderm (FOXA2, SOX17, CXCR4), mesenchyme (T), extraembryonic (SOX7, AFP) [1]: did not significantly affect
- expression of the pluripotency marker NANOG [2]: upregulated
- markers associated with definitive endoderm such as SOX17 and CCXR4 [2]: dose dependently down regulated
- % CXCR4 + CD9− ([3]; BSA + 1 ng/ml insulin (ITS-X)): 70%
- % CXCR4 − CD9+ ([3]; BSA + 1 ng/ml insulin (ITS-X)): 13%
- % CXCR4 − CD9− ([3]; BSA + 1 ng/ml insulin (ITS-X)): 10%
- % CXCR4 + CD9− ([3]; BSA + 5 ng/ml insulin (ITS-X)): 67%
- % CXCR4 − CD9+ ([3]; BSA + 5 ng/ml insulin (ITS-X)): 15%
- % CXCR4 − CD9− ([3]; BSA + 5 ng/ml insulin (ITS-X)): 12%
- % CXCR4 + CD9− ([3]; BSA + 10 ng/ml insulin (ITS-X)): 69%
- % CXCR4 − CD9+ ([3]; BSA + 10 ng/ml insulin (ITS-X)): 13%
- % CXCR4 − CD9− ([3]; BSA + 10 ng/ml insulin (ITS-X)): 13%
- % CXCR4 + CD9− [3, 4]: 73%
- % CXCR4 − CD9+ [3, 4]: 12%
- % CXCR4 − CD9− [3, 4]: 9%
- expression of CXCR4, or CD9 ([3]; BSA medium, any concentration of insulin tested, FACS): no significant change
